Data from paper PMC12641781, “Insights into Hepatic, Neuronal, and hERG Channel Safety of Plant-Derived Active Compounds” (Journal of Xenobiotics, 2025).
≈ marks a conversion by molar mass, not a printed value. Where two headings read alike, the source gives them in different places.

What was measured:
[1] = tested on: Differentiated ReNcell VM cells; test: Neuronal viability assay, differentiated cells (resazurin); assay type: cell-based; conditions: Homo sapiens, read-out: IC50, differentiated ReNcell VM cell viability
Procedure: ReNcell VM cells were seeded into Matrigel®-coated black, clear-bottom 96-well plates at a density of 3.0 × 10^4 cells per well for differentiation assays. The cells were maintained in ReNcell NSC Maintenance Medium (Merck Millipore, Burlington, MA, USA) without growth factors to induce differentiation. The culture medium was changed every two days for three weeks.
(§1) Differentiated ReNcell VM cells were seeded into Matrigel®-coated black, clear-bottom 96-well plates at densities of 3.0 × 10^4 per well. The ReNcell VM cells were incubated at 37 °C with 5% CO2 in the ReNcell Maintenance Media (Merck Millipore, MA, USA) without growth factor. The media was changed every two days for three weeks. Both cell types were treated with test compounds at 0.01, 0.1, 1, 10, and 100 μM. DMSO was used as the control for maximum cell viability, and Triton X-100 was the control for minimum viability. After 20 h of incubation at 37 °C with 5% CO2. Cell viability was assessed using the CellTiter-Blue® Cell Resazurin reagent.

HepG2 cells [2] = test: Hepatocellular viability assay (resazurin reduction); assay type: cell-based, Human; conditions: for IC50: Homo sapiens, read-out: IC50, HepG2 cell viability
Procedure: HepG2 cells (1.5 × 10^4 cells per 100 µL) were seeded into black, clear-bottom 96-well plates and incubated at 37 °C with 5% CO2 for 24 h. The test compounds were prepared in complete media at final concentrations of 0.01, 0.1, 1, 10, and 100 μM and added to each well. For the negative control, 0.2% (v/v) DMSO was used to represent maximum viability, while 0.01% (v/v) Triton X-100 was used as the positive control for minimum viability. The plates were incubated at 37 °C under 5% CO2. After 20 h of incubation, 20% (v/v) CellTiter-Blue Cell Resazurin reagent was added to each well, followed by an additional 2–4 h of incubation. Fluorescence intensity, indicating resorufin levels, was measured at 590 nm using a Synergy H1 reader was obtained from Agilent Technologies (Santa Clara, CA, USA). Each data point was normalized based on the maximum and minimum cell viability data and expressed as % Relative viability using the following formula: % Relative viability=(Experimental data−Minimal viability data)/(Maximal viability data−Minimal viability data)×100

[3] = tested on: Undifferentiated ReNcell VM cells; test: Neuronal viability assay, undifferentiated cells (resazurin); assay type: cell-based, human; conditions: for IC50: 24 h, read-out: IC50, undifferentiated ReNcell VM cell viability; for Inhibition of undifferentiated ReNcell NSC viability: at concentrations up to 100 µM, compared to Triton X-100
Procedure: Undifferentiated ReNcell VM cells were seeded into Matrigel®-coated black, clear-bottom 96-well plates at densities of 1.5 × 10^4 per well. The cells were maintained in ReNcell NSC Maintenance Media (Merck Millipore, MA, USA), supplemented with 10% EGF and 1% penicillin/streptomycin, and were incubated at 37 °C with 5% CO2 for 24 h.
as §1

hERG = molecular target: T1, hERG (Homo sapiens, UniProt Q12809); test: hERG inhibition assay by automated patch-clamp electrophysiology in hERG-overexpressing HEK293 cells; assay type: cell-based
T1 construct: host or cells: HEK293 cells stably overexpressing hERG
Procedure: hERG channel inhibition assay was performed using patch-clamp electrophysiology. HEK293 cells stably overexpressing hERG channels (Eurofins Scientific, Luxembourg) were cultured in Dulbecco’s Modified Eagle Medium F-12 (GIBCO, Carlsbad, CA, USA) supplemented with 10% (v/v) fetal bovine serum (FBS) and 1% penicillin/streptomycin at 37 °C with 5% CO2 until reaching approximately 80% confluency. Cells were then subcultured using trypsin (HyClone, Marlborough, MA, USA), to enzymatically detach adherent HEK293 cells, centrifuged, and resuspended in the External standard buffer (Nanion Technologies, Munich, Germany).
A gigaohm seal was formed after cell seeding in the NPC-16 chip (Nanion Technologies) wells. Brief suction pulses were applied to achieve whole-cell configuration. The hERG channel activity was assessed using a voltage protocol consisting of steps to −80 mV, −40 mV, +40 mV, −40 mV, and back to −80 mV, triggering tail currents. Each well’s peak hERG tail current served as the baseline activity level. To evaluate the inhibitory effects of the six tested compounds, their stock solutions ([…]) were diluted with the external standard buffer to final concentrations of 100 µM, 10 µM, 1 µM, 0.1 µM, and 0.01 µM, and automatically applied to the wells. Subsequently, hERG channel activity was measured again using the same voltage protocol. The relative changes in hERG activity induced by the compounds were calculated and expressed as percentages using the following formula:% hERG activity = (Peak hERG tail current after compound treatment/Peak hERG tail current before compound treatment) × 100

[4] = parameters: method as in PMID 18039808; conditions: oral 500 mg/kg dose in animals; cited from earlier work
[5] = dose of 10 g, healthy volunteers; cited from earlier work
HepG2 cells [6] = tested on: HepG2 cells; parameters: method as in PMID 29348769, PMID 31388314, PMID 40952293; conditions: cited from earlier work
[7] = tested on: triple-negative breast cancer (TNBC) cells; parameters: method as in PMID 29348769, PMID 31388314, PMID 40952293; conditions: cited from earlier work
[8] = single oral dose of rikkunshito (7.5 g/day), healthy Japanese subjects; cited from earlier work
[9] = AL single oral dose of 1000 mg/kg body weight (equivalent to 48.4 mg of ATD), healthy Thai subjects; cited from earlier work
CYP1A2 = tested on: CYP1A2; parameters: method as in PMID 24146513; conditions: in the Yahom Tultavai formulation; cited from earlier work
CYP2E1 = tested on: CYP2E1; parameters: method as in PMID 24146513; conditions: in the Yahom Tultavai formulation; cited from earlier work
CYP2D6 = tested on: CYP2D6; parameters: method as in PMID 37553989; conditions: EPMC as major active compound of the Dephrungsith formulation; cited from earlier work
CYP1A1 = tested on: CYP1A1; parameters: method as in PMID 24146513; conditions: in the Yahom Tultavai formulation; cited from earlier work
[10] = rats, oral dose of 100 mg/kg body weight; read-out: plasma Cmax; cited from earlier work
[11] = differentiated ReNcell VM cells (three weeks without growth factor), 24 h, resazurin assay
[12] = HepG2 cells, 24 h, resazurin assay, 0.01-100 μM
[13] = Homo sapiens, undifferentiated ReNcell VM cells, resazurin assay, 0.01-100 μM
[14] = hERG-overexpressing HEK293 cells, peak tail current, automated patch clamp, read-out: IC50, hERG channel activity
[15] = Homo sapiens, ReNcell VM, undifferentiated ReNcell VM cells, resazurin assay, 0.01-100 μM

T1 sequence (Q12809 whole entry): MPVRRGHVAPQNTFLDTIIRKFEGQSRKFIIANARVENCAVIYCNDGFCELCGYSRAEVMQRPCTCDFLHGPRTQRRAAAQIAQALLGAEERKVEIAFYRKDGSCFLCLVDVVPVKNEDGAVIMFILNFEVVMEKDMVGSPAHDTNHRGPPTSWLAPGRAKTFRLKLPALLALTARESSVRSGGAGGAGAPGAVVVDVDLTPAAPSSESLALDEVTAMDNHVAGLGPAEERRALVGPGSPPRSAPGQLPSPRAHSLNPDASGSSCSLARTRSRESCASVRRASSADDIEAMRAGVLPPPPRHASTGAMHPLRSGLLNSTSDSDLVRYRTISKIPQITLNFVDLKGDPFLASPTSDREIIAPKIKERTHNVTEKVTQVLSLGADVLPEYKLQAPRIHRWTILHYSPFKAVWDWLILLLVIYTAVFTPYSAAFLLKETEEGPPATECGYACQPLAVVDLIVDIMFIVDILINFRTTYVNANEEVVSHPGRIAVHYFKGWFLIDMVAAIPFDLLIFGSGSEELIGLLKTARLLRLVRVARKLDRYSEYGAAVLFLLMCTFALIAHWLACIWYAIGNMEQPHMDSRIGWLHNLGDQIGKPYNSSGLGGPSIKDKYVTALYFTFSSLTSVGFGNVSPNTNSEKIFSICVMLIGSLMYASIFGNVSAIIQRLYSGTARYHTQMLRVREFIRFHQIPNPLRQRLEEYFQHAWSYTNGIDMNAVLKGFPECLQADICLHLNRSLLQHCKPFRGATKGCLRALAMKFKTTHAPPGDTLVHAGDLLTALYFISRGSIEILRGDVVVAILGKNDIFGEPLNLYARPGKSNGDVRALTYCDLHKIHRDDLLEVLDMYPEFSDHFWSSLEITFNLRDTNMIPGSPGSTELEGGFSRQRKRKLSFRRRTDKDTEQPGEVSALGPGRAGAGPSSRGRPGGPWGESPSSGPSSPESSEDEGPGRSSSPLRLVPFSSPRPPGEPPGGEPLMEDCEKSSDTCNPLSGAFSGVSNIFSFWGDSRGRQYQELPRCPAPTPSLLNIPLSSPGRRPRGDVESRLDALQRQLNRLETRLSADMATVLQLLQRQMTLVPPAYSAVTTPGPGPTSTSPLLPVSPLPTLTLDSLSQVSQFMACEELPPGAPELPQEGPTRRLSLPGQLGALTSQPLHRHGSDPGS

C=C1CCC[C@]2(C)CC[C@@H](C(C)(C)O)C[C@@H]12 [BEU, β-eudesmol]
IC50 [1, 11]: > 100 µM
IC50 (HepG2 cells [2]; [12]): > 100 µM
IC50 [3, 13]: > 100 µM
Inhibition of undifferentiated ReNcell NSC viability [3]: did not inhibit
IC50 (hERG; [14]): 33.4 µM

CCC/C=C1\OC(=O)C2=C1CCC=C2 [LIG, ligustilide]
IC50 [1, 11]: > 100 µM
IC50 (HepG2 cells [2]; [12]): > 100 µM
IC50 [3, 13]: > 100 µM
Inhibition of undifferentiated ReNcell NSC viability [3]: did not inhibit
IC50 (hERG; [14]): 37.3 µM
plasma Cmax [4]: 0.66 µg/mL

COc1cc(/C=C/C(=O)CC(=O)/C=C/c2ccc(O)c(OC)c2)ccc1O [CUR, Curcumin]
IC50 (HepG2 cells [2]; [12]): 21 µM
plasma Cmax [5]: 2.3 µg/mL
IC50 [3, 15]: 21.1 µM
IC50 ([3]; undifferentiated ReNcell VM cells, resazurin assay, 0.01-100 μM): 21.2 µM

C/C=C/C#CC#C/C=C/c1ccco1 [ATD, Atractylodin]
IC50, inhibitory effects on HepG2 cells (HepG2 cells [6]): 26.19 µg/mL (≈ 144 µM)
IC50 ([1]; ReNcell VM): > 100 µM
IC50, triple-negative breast cancer (TNBC) cells [7]: 92.11 µg/mL (≈ 505 µM)
maximal plasma concentration (Cmax) [8]: 2 to 20000 pg/mL
IC50 (HepG2 cells [2]; HepG2, 24 h): > 100 µM
IC50 ([3]; Homo sapiens, ReNcell VM): > 100 µM
Inhibition of undifferentiated ReNcell NSC viability [3]: did not inhibit
IC50 (hERG): 26.4 µM
IC50 (hERG; human): 22.4 µM
maximal plasma concentration (Cmax) [9]: 50.35 (13.8–52.90) ng/mL

triton X-100 [reference compound]
HepG2 cell viability compared to the 0.2% DMSO-treated group (HepG2 cells [2]): significant decrease in cell viability

CCOC(=O)/C=C/c1ccc(OC)cc1 [EPMC, ethyl-p-methoxycinnamate]
IC50 [1, 11]: > 100 µM
CYP1A2 inhibition in vivo (CYP1A2): inhibits
CYP2E1 inhibition in vivo (CYP2E1): inhibits
IC50 (HepG2 cells [2]; HepG2, 24 h, HepG2 cells, 24 h, resazurin assay, 0.01-100 μM): > 100 µM
CYP2D6 inhibition in vitro (CYP2D6): potently inhibits
IC50 [3, 15]: > 100 µM
Inhibition of undifferentiated ReNcell NSC viability [3]: did not inhibit
IC50 (hERG; [14]): 53 µM
CYP1A1 inhibition in vivo (CYP1A1): inhibits

COc1c(O)cc2oc3cc(O)c(CC=C(C)C)c(O)c3c(=O)c2c1CC=C(C)C [αMG, α-mangostin]
IC50 [1, 11]: 6 µM
IC50 (hERG; [14]): > 100 µM
Cmax [10]: 1380 nM
